For the assay, the system named is P. infestans. As to the kind of experiment: whole plant or invertebrate. In kind it is in vivo. The conditions noted are these: Phytophthora infestans, in Solanum tuberosum, read-out: P. infestans % inhibition.

Structures can show the parent of a compound that is named as a salt.

The source of these data is patent US20250228242A1 (priority 2021, published 2025).

By inhibition is commonly meant the drop in the measured response relative to a control, in per cent.

As for `Clc1ccc(-c2cc(-c3cccc(N4CCOCC4)c3)[nH]n2)cc1` [Compound 3, 4-{3-[3-(4-Chlorophenyl)-1H-pyrazol-5-yl]phenyl}morpholine], the inhibition at 100 µM was 20%.

In the case of `CN1CCOc2cc(-c3cc(-c4cccc(Br)c4)[nH]n3)ccc21` [Compound 44, 7-[5-(3-Bromophenyl)-1H-pyrazol-3-yl]-4-methyl-3,4-dihydro-2H-1,4-benzoxazine], the inhibition at 100 µM came to 5%.

As for `Nc1ccc(-c2cc(-c3ccccc3F)no2)cc1` [Compound 45, 5-(4-Aminophenyl)-3-(2-fluorophenyl)-isoxazole], the inhibition at 100 µM came out at 76%.

`CC(=O)Nc1ccc(-c2cc(-c3ccccc3F)no2)cc1` [Compound 46, N-{4-[3-(2-Fluorophenyl)-isoxazol-5-yl]phenyl}acetamide]: the inhibition at 100 µM came to 7%.

`Cc1ccc(S(=O)(=O)Nc2ccc(-c3cc(-c4ccccc4F)no3)cc2)cc1` [Compound 47, N-{4-[3-(2-Fluorophenyl)-isoxazol-5-yl]phenyl}-4-methylbenzenesulfonamide]: the inhibition at 100 µM came to 19%.

On to `COc1cc(-c2cc(-c3cccc(C(F)(F)F)c3)no2)ccc1Cl` [Compound 48, 5-(4-Chloro-3-methoxyphenyl)-3-[3-(trifluoromethyl)phenyl]-isoxazole], for which the inhibition at 100 µM was found to be 21%.

For the compound `Oc1cc(-c2cc(-c3cccc(C(F)(F)F)c3)no2)ccc1Cl` [Compound 49, 5-(4-Chloro-3-hydroxyphenyl)-3-[3-(trifluoromethyl)phenyl]-isoxazole], the inhibition at 100 µM was 3%.

On to `Brc1cccc(-c2cc(-c3ccc4c(c3)OCCO4)n[nH]2)c1` [Compound 50, 5-(3-Bromophenyl)-3-(2,3-dihydro-1,4-benzodioxin-6-yl)-1H-pyrazole], for which the inhibition at 100 µM worked out at 28%.

Turning to `COc1cccc(-c2nc(-c3ccc(F)cc3)no2)c1` [Compound 51, 3-(4-Fluorophenyl)-5-(3-methoxyphenyl)-1,2,4-oxadiazole], the inhibition at 100 µM amounted to 8%.

Regarding `CCSc1ccc(-c2cc(-c3ccccc3Cl)no2)cc1` [Compound 52, 3-(2-Chlorophenyl)-5-[4-(ethylsulfanyl)phenyl]-1,2-oxazole], the inhibition at 100 µM came out at 9%.

Take `Cc1ccc(-c2cc(-c3cccc(OC(F)(F)F)c3)no2)cc1C` [Compound 53, 5-(3,4-Dimethylphenyl)-3-[3-(trifluoromethoxy)phenyl]-isoxazole]: the inhibition at 100 µM is 23%.

As to `O=C(Nc1cccc(-c2c[nH]c(-c3ccc(F)cc3)n2)c1)C(F)(F)F` [Compound 54, 2,2,2-Trifluoro-N-{3-[2-(4-fluorophenyl)-1H-imidazol-5-yl]phenyl}acetamide], the inhibition at 100 µM was determined as 91%.

On to `O=C(Nc1ccc(O)cc1)c1ccc(-c2nc(-c3ccc(N4CCCC4)cc3)c[nH]2)cc1` [Compound 55, N-(4-Hydroxyphenyl)-4-{4-[4-(pyrrolidin-1-yl)phenyl]-1H-imidazol-2-yl}benzamide], for which the inhibition at 100 µM amounted to 85%.

Take `O=C(O)c1ccc(-c2n[nH]c(-c3ccc(Cl)cc3)n2)cc1` [Compound 56, 4-[5-(4-Chlorophenyl)-1H-1,2,4-triazol-3-yl]benzoic acid hydrochloride]: the inhibition at 100 µM was determined as 17%.

As for `COc1ccc(NC(=O)Nc2ccc(-c3cc(-c4cccc(F)c4)on3)cc2)cc1` [Compound 57, 1-{4-[5-(3-Fluorophenyl)-1,2-oxazol-3-yl]phenyl}-3-(4-methoxyphenyl)urea], the inhibition at 100 µM was found to be 8%.

Turning to `NCCCC[C@H](N)C(=O)Nc1ccc(-c2nc(-c3ccc(OC(F)(F)F)cc3)n[nH]2)cc1` [Compound 58, (2S)-2,6-Diamino-N-(4-{3-[4-(trifluoromethoxy)phenyl]-1H-1,2,4-triazol-5-yl}phenyl)hexanamide dihydrochloride], the inhibition at 100 µM was found to be 89%.

Take `O=C(c1ccc(-c2n[nH]c(-c3ccc(Cl)cc3)n2)cc1)N1CCOCC1` [Compound 59, {4-[5-(4-Chlorophenyl)-1H-1,2,4-triazol-3-yl]phenyl}(morpholin-4-yl)methanone hydrochloride]: the inhibition at 100 µM was 87%.

On to `Oc1ccc(-c2coc(-c3ccc4ncccc4c3)n2)cc1` [Compound 60, 6-[4-(4-Hydroxyphenyl)-1,3-oxazol-2-yl]quinoline], for which the inhibition at 100 µM came out at 9%.

With `O=C(Nc1ccc(-c2nc(-c3ccc(OC(F)(F)F)cc3)n[nH]2)cc1)C(F)(F)F` [Compound 61, 2,2,2-Trifluoro-N-(4-{5-[4-(trifluoromethoxy)phenyl]-1H-1,2,4-triazol-3-yl}phenyl)acetamide], the inhibition at 100 µM is 71%.

Turning to `O=C(O)c1cccc(-c2noc(-c3ccccc3F)n2)c1` [Compound 62, 3-[5-(2-Fluorophenyl)-1,2,4-oxadiazol-3-yl]benzoic acid], the inhibition at 100 µM came to 64%.

Take `COc1ccc(-c2nc(-c3ccc(C(F)(F)F)cc3)no2)cc1` [Compound 64, 5-(4-Methoxyphenyl)-3-[4-(trifluoromethyl)phenyl]-1,2,4-oxadiazole]: the inhibition at 100 µM came out at 23%.

For `CSc1ccc(Cl)c(-c2nc(-c3cccc(OC(F)(F)F)c3)no2)c1` [Compound 65, 5-[2-Chloro-5-(methylsulfanyl)phenyl]-3-[3-(trifluoromethoxy)phenyl]-1,2,4-oxadiazole], the inhibition at 100 µM turned out to be 31%.

In the case of `CCc1ccc(-c2nc(-c3ccc(OC(F)(F)F)cc3)c[nH]2)cc1` [Compound 66, 2-(4-Ethylphenyl)-4-[4-(trifluoromethoxy)phenyl]-1H-imidazole], the inhibition at 100 µM amounted to 29%.

With `COc1ccc(-c2noc(-c3cccc(Cl)c3)n2)cc1` [Compound 67, 5-(3-Chlorophenyl)-3-(4-methoxyphenyl)-1,2,4-oxadiazole], the inhibition at 100 µM is 55%.

For `COc1ccc(-c2noc(-c3ccccc3Br)n2)cc1` [Compound 68, 5-(2-Bromophenyl)-3-(4-methoxyphenyl)-1,2,4-oxadiazole], the inhibition at 100 µM amounted to 17%.

For `O=C(O)c1cccc(-c2ncc(-c3ccc(C(F)(F)F)cc3O)o2)c1` [Compound 69, 3-{5-[2-Hydroxy-4-(trifluoromethyl)phenyl]-1,3-oxazol-2-yl}benzoic acid], the inhibition at 100 µM was found to be 99%.

Regarding `Oc1ccc(-c2noc(-c3ccc(Cl)cc3)n2)cc1` [Compound 70, 5-(4-Chlorophenyl)-3-(4-hydroxyphenyl)-1,2,4-oxadiazole], the inhibition at 100 µM turned out to be 33%.

`FC(F)(F)c1cccc(-c2cc(-c3ccc4c(c3)OCCO4)n[nH]2)c1` [Compound 71, 3-(2,3-Dihydro-1,4-benzodioxin-6-yl)-5-[3-(trifluoromethyl)phenyl]-1H-pyrazole]: the inhibition at 100 µM was 36%.

As to `Oc1ccc(-c2nc(-c3ccc(C(F)(F)F)cc3)no2)cc1` [Compound 72, 5-(4-Hydroxyphenyl]-3-[4-(trifluoromethyl)phenyl]-1,2,4-oxadiazole], the inhibition at 100 µM was determined as 83%.

For `O=[N+]([O-])c1ccc(-c2nc(-c3cccc(C(F)(F)F)c3)no2)cc1` [Compound 73, 5-(4-Nitrophenyl)-3-[3-(trifluoromethyl)phenyl]-1,2,4-oxadiazole], the inhibition at 100 µM was 2%.

With `Nc1ccc(-c2nc(-c3cccc(C(F)(F)F)c3)no2)cc1` [Compound 74, 5-(4-Aminophenyl)-3-[3-(trifluoromethyl)phenyl]-1,2,4-oxadiazole], the inhibition at 100 µM came to 18%.

Turning to `CC(C)OC(=O)Nc1ccc(-c2nc(-c3cccc(C(F)(F)F)c3)no2)cc1` [Compound 75, Propan-2-yl (4-{3-[3-(trifluoromethyl)phenyl]-1,2,4-oxadiazol-5-yl}phenyl)carbamate], the inhibition at 100 µM worked out at 31%.

Turning to `COC(=O)Nc1ccc(-c2nc(-c3ccc(OC(F)(F)F)cc3)n[nH]2)cc1` [Compound 77, Methyl (4-{5-[4-(trifluoromethoxy)phenyl]-1H-1,2,4-triazol-3-yl}phenyl)carbamate], the inhibition at 100 µM amounted to 6%.

Take `Oc1ccc(-c2c[nH]c(-c3ccc(Cl)cc3)n2)cc1` [Compound 78, 2-(4-Chlorophenyl)-5-(4-hydroxyphenyl)-1H-imidazole]: the inhibition at 100 µM turned out to be 79%.

In the case of `Cc1cccc(-c2nc(-c3ccc(Cl)c(Cl)c3)c[nH]2)c1` [Compound 79, 5-(3,4-Dichlorophenyl)-2-(3-methylphenyl)-1H-imidazole], the inhibition at 100 µM came out at 81%.

For the compound `Clc1cccc(-c2cc(-c3ccc4c(c3)OCCO4)n[nH]2)c1` [Compound 80, 5-(3-Chlorophenyl)-3-(2,3-dihydro-1,4-benzodioxin-6-yl)-1H-pyrazole], the inhibition at 100 µM turned out to be 77%.

For the compound `Oc1ccc(F)cc1-c1c[nH]c(-c2ccc(C(F)(F)F)cc2)n1` [Compound 81, 5-(2-Hydroxy-5-fluorophenyl)-2-[4-(trifluoromethyl)phenyl]-1H-imidazole], the inhibition at 100 µM came to 10%.

For the compound `COCCNC(=O)Nc1ccc(-c2n[nH]c(-c3ccc(C(F)(F)F)cc3)n2)cc1` [Compound 82, 1-(2-Methoxyethyl)-3-(4-{5-[4-(trifluoromethyl)phenyl]-1H-1,2,4-triazol-3-yl}phenyl)urea], the inhibition at 100 µM was determined as 18%.

For the compound `O=C(O)c1ccc(-c2cc(-c3cccc(C(F)(F)F)c3)no2)cc1` [Compound 83, 4-{3-[3-(Trifluoromethyl)phenyl]-1,2-oxazol-5-yl}benzoic acid], the inhibition at 100 µM turned out to be 26%.

With `FC(F)(F)Oc1ccc(-c2c[nH]c(-c3ccc(Br)cc3)n2)cc1` [Compound 84, 2-(4-Bromophenyl)-5-[4-(trifluoromethoxy)phenyl]-1H-imidazole], the inhibition at 100 µM came to 96%.

As to `Cc1ccc(-c2cc(-c3ccc(O)cc3)no2)cc1` [Compound 85, 3-(4-Hydroxyphenyl)-5-(4-methylphenyl)-1,2-oxazole], the inhibition at 100 µM is 10%.

For `COc1cccc(-c2cnc(-c3cccc(Br)c3)[nH]2)c1` [Compound 86, 2-(3-Bromophenyl)-5-(3-methoxyphenyl)-1H-imidazole], the inhibition at 100 µM came out at 75%.

Consider `Oc1cccc(-c2cnc(-c3cccc(Br)c3)[nH]2)c1` [Compound 87, 2-(3-Bromophenyl)-5-(3-hydroxyphenyl)-1H-imidazole], for which the inhibition at 100 µM amounted to 99%.

For the compound `O=C(Nc1cccc(-c2c[nH]c(-c3ccc(F)cc3)n2)c1)c1ccccc1` [Compound 88, N-{3-[2-(4-fluorophenyl)-1H-imidazol-5-yl]phenyl}benzamide], the inhibition at 100 µM was found to be 28%.
